Data published in patent publication US9611224B2 (Hoffmann-La Roche Inc., priority 2012, dated 2017).
Structures can show the parent of a compound that is named as a salt.

Each compound was assayed against BIR3 domain of XIAP (Homo sapiens (Human), UniProt P98170) (assay: TR-FRET assay for BIR3 (inhibition of binding to Peptide A)). Conditions: 6x His-tagged BIR3 domain (aa 241-356 of XIAP), 20 nM Peptide A, 10 concentrations.
Method: TR-FRET Assay for BIR2 and BIR3
Percentage of inhibition at each concentration was determined to generate an IC50 value for each test compound.

Chain of BIR3 domain of XIAP (P98170 other isoform, or with tags, fused parts or gaps): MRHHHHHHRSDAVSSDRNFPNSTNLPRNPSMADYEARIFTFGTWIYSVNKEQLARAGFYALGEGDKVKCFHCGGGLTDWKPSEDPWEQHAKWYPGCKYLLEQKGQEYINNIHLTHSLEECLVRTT

SMILES	IC50 [µM]
CN[C@@H](C)C(=O)N[C@H]1CCc2ccccc2N(Cc2cc(I)ccc2OC)C1=O [Example 1n, (S)—N—[(S)-1-(5-Iodo-2-methoxy-benzyl)-2-oxo-2,3,4,5-tetrahydro-1H-benzo[b]azepin-3-yl]-2-methylamino-propionamide hydrochloride]	43
C#Cc1ccc2ccccc2c1CN1C(=O)[C@@H](NC(=O)[C@H](C)NC)CCc2ccccc21 [Example 47i, (S)—N—[(S)-1-(2-Ethynyl-naphthalen-1-ylmethyl)-2-oxo-2,3,4,5-tetrahydro-1H-benzo[b]azepin-3-yl]-2-methylamino-propionamide hydrochloride]	> 54.8
CN[C@@H](C)C(=O)N[C@H]1CCc2ccccc2N(Cc2c(C#CC3(O)COC3)ccc3ccccc23)C1=O [Example 14, (S)—N—{(S)-1-[2-(3-Hydroxy-oxetan-3-ylethynyl)-naphthalen-1-ylmethyl]-2-oxo-2,3,4,5-tetrahydro-1H-benzo[b]azepin-3-yl}-2-methylamino-propionamide]	> 54.8
CC[C@H](NC1COC1)C(=O)N[C@H]1CCc2ccccc2N(Cc2c(OC)ccc3cc(Br)ccc23)C1=O [Example 9, (S)—N—((S)-1-((6-Bromo-2-methoxynaphthalen-1-yl)methyl)-2-oxo-2,3,4,5-tetrahydro-1H-benzo[b]azepin-3-yl)-2-(oxetan-3-ylamino)butanamide]	> 54.8
CN[C@@H](C)C(=O)N[C@H]1CCc2ccccc2N(Cc2c(OC)ccc3cc(CN4CCNCC4)ccc23)C1=O [Example 49r, (S)—N—[(S)-1-(2-Methoxy-6-piperazin-1-ylmethyl-naphthalen-1-ylmethyl)-2-oxo-2,3,4,5-tetrahydro-1H-benzo[b]azepin-3-yl]-2-methylamino-propionamide hydrochloride]	> 54.8
CN[C@@H](C)C(=O)N[C@H]1CCc2ccccc2N(Cc2c(OC)ccc3cc(C(C)=O)ccc23)C1=O [Example 45, (S)—N—[(S)-1-(6-Acetyl-2-methoxy-naphthalen-1-ylmethyl)-2-oxo-2,3,4,5-tetrahydro-1H-benzo[b]azepin-3-yl]-2-methylamino-propionamide hydrochloride]	> 54.8
CN[C@@H](C)C(=O)N[C@H]1CCc2ccccc2N(Cc2cccnc2)C1=O [Example 2f, (S)-2-Methylamino-N—((S)-2-oxo-1-pyridin-3-ylmethyl-2,3,4,5-tetrahydro-1H-benzo[b]azepin-3-yl)-propionamide hydrochloride]	> 51.5
CN[C@@H](C)C(=O)N[C@H]1CCc2ccccc2N(Cc2ccnc3ccccc23)C1=O [Example 47d, (S)-2-Methylamino-N—((S)-2-oxo-1-quinolin-4-ylmethyl-2,3,4,5-tetrahydro-1H-benzo[b]azepin-3-yl)-propionamide hydrochloride]	> 54.8
C=CCOc1ccc2ccccc2c1CN1C(=O)[C@@H](NC(=O)[C@H](C)NC)CCc2ccccc21 [Example 16, (S)—N—[(S)-1-(2-Allyloxy-naphthalen-1-ylmethyl)-2-oxo-2,3,4,5-tetrahydro-1H-benzo[b]azepin-3-yl]-2-methylamino-propionamide]	> 54.8
CN[C@@H](C)C(=O)N[C@H]1CCc2ccccc2N(Cc2cc(Cl)ccc2Cl)C1=O [Example 1l, (S)—N—[(S)-1-(2,5-Dichloro-benzyl)-2-oxo-2,3,4,5-tetrahydro-1H-benzo[b]azepin-3-yl]-2-methylamino-propionamide hydrochloride]	> 54.8
CN[C@@H](C)C(=O)N[C@H]1CCc2ccccc2N(Cc2c(OC)ccc3cc(Cc4ccccc4)ccc23)C1=O [Example 49i, (S)—N—[(S)-1-(6-Benzyl-2-methoxy-naphthalen-1-ylmethyl)-2-oxo-2,3,4,5-tetrahydro-1H-benzo[b]azepin-3-yl]-2-methylamino-propionamide hydrochloride]	> 54.8
CN[C@@H](C)C(=O)N[C@H]1CCc2ccccc2N(Cc2ccc(C3CC3)c3ccccc23)C1=O [Example 49m, (S)—N—[(S)-1-(4-Cyclopropyl-naphthalen-1-ylmethyl)-2-oxo-2,3,4,5-tetrahydro-1H-benzo[b]azepin-3-yl]-2-methylamino-propionamide hydrochloride]	> 54.8
COc1ccc2cc(Br)ccc2c1CN1C(=O)[C@@H](NC(=O)[C@@H](N)[C@H](C)O)CCc2ccccc21 [Example 10, (2S,3S)-2-Amino-N—((S)-1-((6-bromo-2-methoxynaphthalen-1-yl)methyl)-2-oxo-2,3,4,5-tetrahydro-1H-benzo[b]azepin-3-yl)-3-hydroxybutanamide hydrochloride]	> 54.8
CC[C@H](N)C(=O)N[C@H]1CCc2ccccc2N(Cc2c(OC)cnc3ccccc23)C1=O [Example 3, (S)-2-amino-N—((S)-1-((3-methoxyquinolin-4-yl)methyl)-2-oxo-2,3,4,5-tetrahydro-1H-benzo[b]azepin-3-yl)butanamide]	49.9
CN[C@@H](C)C(=O)N[C@H]1CCc2ccccc2N(Cc2c(OC)ccc3cc(C(=N)NN)ccc23)C1=O [Example 33, (S)—N—{(S)-1-[6-(N-Aminocarbamimidoyl)-2-methoxy-naphthalen-1-ylmethyl]-2-oxo-2,3,4,5-tetrahydro-1H-benzo[b]azepin-3-yl}-2-methylamino-propionamide dihydrochloride]	> 54.8
CN[C@@H](C)C(=O)N[C@H]1CCc2ccccc2N(Cc2ccncc2)C1=O [Example 2h, (S)-2-Methylamino-N—((S)-2-oxo-1-pyridin-4-ylmethyl-2,3,4,5-tetrahydro-1H-benzo[b]azepin-3-yl)-propionamide hydrochloride]	> 54.8
CN[C@@H](C)C(=O)N[C@H]1CCc2ccccc2N(Cc2cccc3ccc(Br)cc23)C1=O [Example 47ff, (S)—N—[(S)-1-(7-Bromo-naphthalen-1-ylmethyl)-2-oxo-2,3,4,5-tetrahydro-1H-benzo[b]azepin-3-yl]-2-methylamino-propionamide hydrochloride]	47.5
CN[C@@H](C)C(=O)N[C@H]1CCc2ccccc2N(Cc2ccc(CCc3ccccc3)c3ccccc23)C1=O [Example 49h, (S)-2-Methylamino-N—[(S)-2-oxo-1-(4-phenethyl-naphthalen-1-ylmethyl)-2,3,4,5-tetrahydro-1H-benzo[b]azepin-3-yl]-propionamide hydrochloride]	> 54
CN[C@@H](C)C(=O)N[C@H]1CCc2ccccc2N(Cc2cccc3ccsc23)C1=O [Example 47jj, (S)—N—((S)-1-Benzo[b]thiophen-7-ylmethyl-2-oxo-2,3,4,5-tetrahydro-1H-benzo[b]azepin-3-yl)-2-methylamino-propionamide hydrochloride]	> 54.8
CN[C@@H](C)C(=O)N[C@H]1CCc2ccccc2N(Cc2cncn2C)C1=O [Example 2i, (S)-2-Methylamino-N—[(S)-1-(3-methyl-3H-imidazol-4-ylmethyl)-2-oxo-2,3,4,5-tetrahydro-1H-benzo[b]azepin-3-yl]-propionamide hydrochloride]	> 54.8
CN[C@@H](C)C(=O)N[C@H]1CCc2ccccc2N(Cc2csc3ccc(Br)cc23)C1=O [Example 19, (S)—N—[(S)-1-(5-Bromo-benzo[b]thiophen-3-ylmethyl)-2-oxo-2,3,4,5-tetra hydro-1H-benzo[b]azepin-3-yl]-2-methylamino-propionamide hydrochloride]	27.4
